# Reference: ChEMBL document CHEMBL4613209, “Quinolone hybrids and their anti-cancer activities: An overview” (Eur J Med Chem, 2019)
# Biological target: Tubulin
# Test: Inhibition of tubulin polymerization (unknown origin)
# Assay type: protein-complex assay, Homo sapiens
row,Structure (SMILES),IC50
1,C[C@H]1COc2c(N3CCN(C)CC3)c(F)cc3c(=O)c(C(=O)OCc4cn(CCCCCC(=O)NO)nn4)cn1c23,1790 to 6360 nM
2,C[C@H]1COc2c(N3CCN(C)CC3)c(F)cc3c(=O)c(C(=O)NCc4cn(CCCCCCC(=O)NO)nn4)cn1c23,1790 to 6360 nM

# Tested on: A549
# Test: Anticancer activity against human A549 cells
# Assay type: functional, cell-based
row,Structure (SMILES),IC50
1,Cc1cccc(C)c1NC1CCN(C2C(F)=Cc3c4n(cc(C(=O)O)c3=O)-c3ccccc3OC42)C1 (stereo not given),30 to 490 nM
2,NC1CCN(C2C(F)=Cc3c4n(cc(C(=O)O)c3=O)-c3ccccc3OC42)C1 (stereo not given),30 to 490 nM
3,Cc1ccccc1NC1CCN(C2C(F)=Cc3c4n(cc(C(=O)O)c3=O)-c3ccccc3OC42)C1 (stereo not given),30 to 490 nM

# Tested on: P388
# Test: Anticancer activity against mouse P388 cells
# Assay type: functional, cell-based
row,Structure (SMILES),IC50
1,Cc1cccc(C)c1NC1CCN(C2C(F)=Cc3c4n(cc(C(=O)O)c3=O)-c3ccccc3OC42)C1 (stereo not given),30 to 490 nM
2,NC1CCN(C2C(F)=Cc3c4n(cc(C(=O)O)c3=O)-c3ccccc3OC42)C1 (stereo not given),30 to 490 nM
3,Cc1ccccc1NC1CCN(C2C(F)=Cc3c4n(cc(C(=O)O)c3=O)-c3ccccc3OC42)C1 (stereo not given),30 to 490 nM

# Tested on: P388
# Test: Cytotoxicity against mouse P388 cells assessed as reduction in cell viability
# Assay type: functional, cell-based
row,Structure (SMILES),IC50
1,Cc1cccc(C)c1NC1CCN(C2C(F)=Cc3c4n(cc(C(=O)O)c3=O)-c3ccccc3OC42)C1 (stereo not given),0.011 to 0.59 µg/mL
2,NC1CCN(C2C(F)=Cc3c4n(cc(C(=O)O)c3=O)-c3ccccc3OC42)C1 (stereo not given),0.011 to 0.59 µg/mL
3,Cc1ccccc1NC1CCN(C2C(F)=Cc3c4n(cc(C(=O)O)c3=O)-c3ccccc3OC42)C1 (stereo not given),0.011 to 0.59 µg/mL

# Biological target: Histone deacetylase
# Test: Inhibition of HDAC (unknown origin)
# Assay type: protein assay, Homo sapiens
row,Structure (SMILES),IC50
1,C[C@H]1COc2c(N3CCN(C)CC3)c(F)cc3c(=O)c(C(=O)OCc4cn(CCCCCC(=O)NO)nn4)cn1c23,21 to 850 nM
2,C[C@H]1COc2c(N3CCN(C)CC3)c(F)cc3c(=O)c(C(=O)NCc4cn(CCCCCCC(=O)NO)nn4)cn1c23,21 to 850 nM

# Tested on: HT-29
# Test: Anticancer activity against human HT-29 cells
# Assay type: functional, cell-based
row,Structure (SMILES),IC50
1,Cc1cccc(C)c1NC1CCN(C2C(F)=Cc3c4n(cc(C(=O)O)c3=O)-c3ccccc3OC42)C1 (stereo not given),30 to 490 nM
2,NC1CCN(C2C(F)=Cc3c4n(cc(C(=O)O)c3=O)-c3ccccc3OC42)C1 (stereo not given),30 to 490 nM
3,Cc1ccccc1NC1CCN(C2C(F)=Cc3c4n(cc(C(=O)O)c3=O)-c3ccccc3OC42)C1 (stereo not given),30 to 490 nM

# Tested on: HepG2
# Test: Antiproliferative activity against human HepG2 cells by CCK8 assay
# Assay type: functional, cell-based
row,Structure (SMILES),IC50
1,C[C@H]1COc2c(N3CCN(C)CC3)c(F)cc3c(=O)c(C(=O)OCc4cn(CCCCCC(=O)NO)nn4)cn1c23,300 to 12800 nM
2,C[C@H]1COc2c(N3CCN(C)CC3)c(F)cc3c(=O)c(C(=O)NCc4cn(CCCCCCC(=O)NO)nn4)cn1c23,300 to 4900 nM

# Tested on: P388
# Test: Cytotoxicity against doxorubicin resistant mouse P388 cells assessed as reduction in cell viability
# Assay type: functional, cell-based
row,Structure (SMILES),IC50
1,Cc1cccc(C)c1NC1CCN(C2C(F)=Cc3c4n(cc(C(=O)O)c3=O)-c3ccccc3OC42)C1 (stereo not given),0.011 to 0.59 µg/mL
2,NC1CCN(C2C(F)=Cc3c4n(cc(C(=O)O)c3=O)-c3ccccc3OC42)C1 (stereo not given),0.011 to 0.59 µg/mL
3,Cc1ccccc1NC1CCN(C2C(F)=Cc3c4n(cc(C(=O)O)c3=O)-c3ccccc3OC42)C1 (stereo not given),0.011 to 0.59 µg/mL

# Tested on: MCF-10A
# Test: Antiproliferative activity against human MCF10A cells by CCK8 assay
# Assay type: cell-based
row,Structure (SMILES),IC50
1,C[C@H]1COc2c(N3CCN(C)CC3)c(F)cc3c(=O)c(C(=O)OCc4cn(CCCCCC(=O)NO)nn4)cn1c23,> 100000 nM
2,C[C@H]1COc2c(N3CCN(C)CC3)c(F)cc3c(=O)c(C(=O)NCc4cn(CCCCCCC(=O)NO)nn4)cn1c23,> 100000 nM

# Tested on: MCF7
# Test: Antiproliferative activity against human MCF7 cells by CCK8 assay
# Assay type: functional, cell-based
row,Structure (SMILES),IC50
1,C[C@H]1COc2c(N3CCN(C)CC3)c(F)cc3c(=O)c(C(=O)OCc4cn(CCCCCC(=O)NO)nn4)cn1c23,300 to 12800 nM
2,C[C@H]1COc2c(N3CCN(C)CC3)c(F)cc3c(=O)c(C(=O)NCc4cn(CCCCCCC(=O)NO)nn4)cn1c23,300 to 4900 nM

# Tested on: HT-29
# Test: Cytotoxicity against human HT-29 cells assessed as reduction in cell viability
# Assay type: functional, cell-based
row,Structure (SMILES),IC50
1,Cc1cccc(C)c1NC1CCN(C2C(F)=Cc3c4n(cc(C(=O)O)c3=O)-c3ccccc3OC42)C1 (stereo not given),0.011 to 0.59 µg/mL
2,NC1CCN(C2C(F)=Cc3c4n(cc(C(=O)O)c3=O)-c3ccccc3OC42)C1 (stereo not given),0.011 to 0.59 µg/mL
3,Cc1ccccc1NC1CCN(C2C(F)=Cc3c4n(cc(C(=O)O)c3=O)-c3ccccc3OC42)C1 (stereo not given),0.011 to 0.59 µg/mL

# Tested on: HeLa
# Test: Antiproliferative activity against human HeLa cells by CCK8 assay
# Assay type: functional, cell-based
row,Structure (SMILES),IC50
1,C[C@H]1COc2c(N3CCN(C)CC3)c(F)cc3c(=O)c(C(=O)OCc4cn(CCCCCC(=O)NO)nn4)cn1c23,300 to 12800 nM
2,C[C@H]1COc2c(N3CCN(C)CC3)c(F)cc3c(=O)c(C(=O)NCc4cn(CCCCCCC(=O)NO)nn4)cn1c23,300 to 4900 nM

# Tested on: P388
# Test: Anticancer activity against doxorubicin resistant mouse P388 cells
# Assay type: functional, cell-based
row,Structure (SMILES),IC50
1,Cc1cccc(C)c1NC1CCN(C2C(F)=Cc3c4n(cc(C(=O)O)c3=O)-c3ccccc3OC42)C1 (stereo not given),30 to 490 nM
2,NC1CCN(C2C(F)=Cc3c4n(cc(C(=O)O)c3=O)-c3ccccc3OC42)C1 (stereo not given),30 to 490 nM
3,Cc1ccccc1NC1CCN(C2C(F)=Cc3c4n(cc(C(=O)O)c3=O)-c3ccccc3OC42)C1 (stereo not given),30 to 490 nM

# Tested on: PC-3
# Test: Antiproliferative activity against human PC3 cells by CCK8 assay
# Assay type: functional, cell-based
row,Structure (SMILES),IC50
1,C[C@H]1COc2c(N3CCN(C)CC3)c(F)cc3c(=O)c(C(=O)OCc4cn(CCCCCC(=O)NO)nn4)cn1c23,300 to 12800 nM
2,C[C@H]1COc2c(N3CCN(C)CC3)c(F)cc3c(=O)c(C(=O)NCc4cn(CCCCCCC(=O)NO)nn4)cn1c23,300 to 4900 nM

# Tested on: HCT-8
# Test: Anticancer activity against human HCT8 cells
# Assay type: functional, cell-based
row,Structure (SMILES),IC50
1,Cc1cccc(C)c1NC1CCN(C2C(F)=Cc3c4n(cc(C(=O)O)c3=O)-c3ccccc3OC42)C1 (stereo not given),30 to 490 nM
2,NC1CCN(C2C(F)=Cc3c4n(cc(C(=O)O)c3=O)-c3ccccc3OC42)C1 (stereo not given),30 to 490 nM
3,Cc1ccccc1NC1CCN(C2C(F)=Cc3c4n(cc(C(=O)O)c3=O)-c3ccccc3OC42)C1 (stereo not given),30 to 490 nM

# Tested on: A549
# Test: Antiproliferative activity against human A549 cells by CCK8 assay
# Assay type: functional, cell-based
row,Structure (SMILES),IC50
1,C[C@H]1COc2c(N3CCN(C)CC3)c(F)cc3c(=O)c(C(=O)OCc4cn(CCCCCC(=O)NO)nn4)cn1c23,300 to 12800 nM
2,C[C@H]1COc2c(N3CCN(C)CC3)c(F)cc3c(=O)c(C(=O)NCc4cn(CCCCCCC(=O)NO)nn4)cn1c23,300 to 4900 nM

# Tested on: B16-F10
# Test: Cytotoxicity against mouse B16F10 cells assessed as reduction in cell viability
# Assay type: functional, cell-based
row,Structure (SMILES),IC50
1,Cc1cccc(C)c1NC1CCN(C2C(F)=Cc3c4n(cc(C(=O)O)c3=O)-c3ccccc3OC42)C1 (stereo not given),0.011 to 0.59 µg/mL
2,NC1CCN(C2C(F)=Cc3c4n(cc(C(=O)O)c3=O)-c3ccccc3OC42)C1 (stereo not given),0.011 to 0.59 µg/mL
3,Cc1ccccc1NC1CCN(C2C(F)=Cc3c4n(cc(C(=O)O)c3=O)-c3ccccc3OC42)C1 (stereo not given),0.011 to 0.59 µg/mL

# Tested on: B16-F10
# Test: Anticancer activity against mouse B16F10 cells
# Assay type: functional, cell-based
row,Structure (SMILES),IC50
1,Cc1cccc(C)c1NC1CCN(C2C(F)=Cc3c4n(cc(C(=O)O)c3=O)-c3ccccc3OC42)C1 (stereo not given),30 to 490 nM
2,NC1CCN(C2C(F)=Cc3c4n(cc(C(=O)O)c3=O)-c3ccccc3OC42)C1 (stereo not given),30 to 490 nM
3,Cc1ccccc1NC1CCN(C2C(F)=Cc3c4n(cc(C(=O)O)c3=O)-c3ccccc3OC42)C1 (stereo not given),30 to 490 nM

# Tested on: MCF7
# Test: Anticancer activity against human MCF7 cells
# Assay type: functional, cell-based
row,Structure (SMILES),IC50
1,Cc1cccc(C)c1NC1CCN(C2C(F)=Cc3c4n(cc(C(=O)O)c3=O)-c3ccccc3OC42)C1 (stereo not given),30 to 490 nM
2,NC1CCN(C2C(F)=Cc3c4n(cc(C(=O)O)c3=O)-c3ccccc3OC42)C1 (stereo not given),30 to 490 nM
3,Cc1ccccc1NC1CCN(C2C(F)=Cc3c4n(cc(C(=O)O)c3=O)-c3ccccc3OC42)C1 (stereo not given),30 to 490 nM

# Tested on: A549
# Test: Cytotoxicity against human A549 cells assessed as reduction in cell viability
# Assay type: functional, cell-based
row,Structure (SMILES),IC50
1,Cc1cccc(C)c1NC1CCN(C2C(F)=Cc3c4n(cc(C(=O)O)c3=O)-c3ccccc3OC42)C1 (stereo not given),0.011 to 0.59 µg/mL
2,NC1CCN(C2C(F)=Cc3c4n(cc(C(=O)O)c3=O)-c3ccccc3OC42)C1 (stereo not given),0.011 to 0.59 µg/mL
3,Cc1ccccc1NC1CCN(C2C(F)=Cc3c4n(cc(C(=O)O)c3=O)-c3ccccc3OC42)C1 (stereo not given),0.011 to 0.59 µg/mL

# Tested on: Lewis lung carcinoma cell line
# Test: Anticancer activity against mouse LLC cells
# Assay type: functional, cell-based
row,Structure (SMILES),IC50
1,Cc1cccc(C)c1NC1CCN(C2C(F)=Cc3c4n(cc(C(=O)O)c3=O)-c3ccccc3OC42)C1 (stereo not given),30 to 490 nM
2,NC1CCN(C2C(F)=Cc3c4n(cc(C(=O)O)c3=O)-c3ccccc3OC42)C1 (stereo not given),30 to 490 nM
3,Cc1ccccc1NC1CCN(C2C(F)=Cc3c4n(cc(C(=O)O)c3=O)-c3ccccc3OC42)C1 (stereo not given),30 to 490 nM
